# Results from PMC10499988 (Nature Communications, 2023).
# Like-named read-outs stand apart in the source and are kept apart here. Positions of bridges follow the written chain, without caps; N, C: chain ends. Residues, ends and D or L forms follow the SMILES beside them.
# Tests used:
# [1] = In vivo pharmacokinetic experiment, plasma LC-MS after tail vein injection
# Procedure: All the procedures and experiments involving animals were carried out using a protocol approved by the Health Sciences Laboratory Animal Services (HSLAS), University of Alberta. The protocol was approved as per the Canadian Council on Animal Care (CCAC) guidelines. Approved protocol # AUP00002467. All mice (Strain: C57BL/6J) were maintained in pathogen-free conditions at the University of Alberta breeding facility. Housed on ventilated caging (Tecniplast); Temperature: 21 +/− 2 degrees Celsius; Humidity: 30–70% rH; Light Cycle: 12 L:12D. […] Peptide mixtures of 100 µM were prepared in PBS. Mice were administered with 200 µL of the peptide mixture solution with tail veil injection. A series of 6 blood samples were collected at time points from 2 min up to 240 min (Fig. 6B: 2 min, 60 min; Fig. 6C–E: 2 min, 60 min, 180 min; Supplementary Fig. 32: 2 min, 5 min, 30 min, 60 min, 120 min, 240 min). Samples were collected in tubes that contained sodium citrate as an anticoagulant and then centrifuged at 5 min at 2000 × g to collect the blood plasma. 10 µL of plasma portion were transferred into a tube containing 40 µL of 8:2 acetonitrile/water to precipitate proteins. The samples were centrifuged at 17,000 × g for 10 min at 4 °C. Supernatants were then transferred to new tubes and subjected to analysis by LC-MS. […]
# assays. The fluorescent-labeled peptides w ere dissolved to 10 m M in D M SO and diluted to 20 µM in DM SO for use. Each well contained 19 µL of HSA in PBSwith the range of final […]
# 1 µL of 20 µM of fluorescentlly labeled peptide was added to the wells to a final concentration of 1 µM . Each measuring point was made in duplicate. Before measuring, the plate was centrifuged 500×g for 5 min at RT, incubated for 10 m in, and shaken for 5 m in the dark. The m easurem ent w as perform ed in Cytation5 Cell Imaging Multi-Mode Reader from BioTek. The data were analyzed and processed in […]
# 26. […]
# prepared with the identical buffer as the peptides to a final concentration of 40 µM . […] The data were evaluated using the MicroCalTM OriginTM Version 5.0. […]
# HSA [2] = target: T1, HSA (Homo sapiens, UniProt P02768); parameters: purchased Sigma-Aldrich A4327-1G; conditions: cited from earlier work
# HSA [3] = target: T1, HSA; conditions: 19F NMR competition
# [4] = target: Serum albumin (Homo sapiens) (UniProt P02768); conditions: cited from earlier work
# [5] = Reactivity of macrocycles with thiol nucleophiles; assay type: physicochemical; conditions: several hours, basic pH
# Excerpt: 6-10 Å and the PM F of the pocket 1 starts to deviate from the others, we performed hydrogen bond interaction searches with 3.5 Å cut off distance between a donor and an acceptor at intermediate regime from umbrella sampling simulations. These findings […]
# of the peptide to the pocket 1 binding site of albumin. This was supported by the fact that […]
# simulation time (Supplementary Fig. 27). O verall, these findings provide im portant insights into the m echanism of binding betw een the peptide and album in, w hich could inform the design of future albumin-binding peptides with improved affinity and specificity. The concurrence of the docking results and the experimental binding data provides strong evidence that our simulations accurately predicted the binding for 14c.
# Supplementary Fig. 7. […] The OFS-SWCRC […]
# peptide was added with one equivalent of GSH in 60% acetonitrile in 50 mM Tris-HCl at pH 8.5.
# The reaction was monitored by LC–MS.
# Supplementary Fig. 8. Stability of the PFS stapled peptides (A ) Results of the PFS-SW CRC mixed with 2-mercaptoethanol and analyzed by LC–MS after 1 hour and 3 weeks. The PFS-SW CRC macrocycle was combined with 1 equivalent of 2-mercaptoethanol in 60% acetonitrile and 50 mM Tris-HCl at pH 8.5. The mixture was monitored by LC–MS. […]
# spectrum of 1 mg of PFS- […] mixed with 1 mg of HSA over 19 days in PBS. The mixture was monitored by 19F NMR in PBS, 10% D2O
# [6] = C57BL/6J, mouse, plasma, iv, 200 uL of 100 uM peptide mixture
molecule,measurement,setting,value
CC[C@H](C)[C@H](NC(=O)[C@H](CC(C)C)NC(=O)[C@H](CCCNC(=N)N)NC(C)=O)C(=O)N[C@@H](CCC(=O)O)C(=O)N[C@@H](CC(=O)O)C(=O)N[C@H](C(=O)N[C@H]1CSSC[C@@H](C(=O)N[C@@H](CC(C)C)C(=O)N[C@@H](Cc2c[nH]c3ccccc23)C(=O)N[C@@H](CCC(=O)O)C(=O)N[C@@H](CC(=O)O)C(=O)N[C@@H](CC(=O)O)C(N)=O)NC(=O)CNC(=O)[C@H](Cc2c[nH]c3ccccc23)NC(=O)[C@H](CCCNC(=N)N)NC(=O)[C@@H]2CCCN2C(=O)[C@H](CC(C)C)NC1=O)[C@@H](C)CC [SA-21] (Ac-RLIEDICLPRWGCLWEDD-NH2; disulfide 7-13),level at 2 min,[1]; [6],40000 ng/mL
same,level at 1 h,[1]; [6],30000 ng/mL
same,"plasma concentration in 3 h study, in words","[1]; mice, tail vein, 2, 60, 180 min",indistinguishable
same,Kd,"HSA [2]; Discussion, reference not given, read-out: affinity of benchmark",600 nM
same,Kd,HSA [2]; read-out: binding affinity to HSA,~500 nM
NC(=O)N1c2ccccc2C=Cc2ccccc21 [carbamazepine],influence on binding of 14c to HSA,HSA [3],none of these drugs influenced the binding of 14c
FITC-EYEYKpalmESE-NH2,Kd,[4],39 nM
OFS-SWCRC,reactivity with glutathione (GSH),[5],reacted with GSH over 3 hours
